Experimental data taken from patent US10865191B2, “Heterocyclic compounds useful as modulators of TNF alpha” (BRISTOL-MYERS SQUIBB COMPANY, priority 2015, dated 2020).

Target: TNFα (Homo sapiens, UniProt P01375)
Assay: TNF induced HEK-Blue assay (NF-kB-driven secreted alkaline phosphatase reporter)
Format: cell-based
Settings: TNF induced HEK-Blue assay IC50 value, TNFα 0.5 ng/mL, HEK-Blue-CD40L cells, 18 h
Method in brief: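 HEK-Blue-CD40L cells (NF-kB-driven SEAP reporter), 20,000/well, added after 30 min pre-incubation of compound (0.004–25 μM final) with TNFα 0.5 ng/mL final at 37 °C; 18 h incubation. SEAP read with QUANTI-Blue at 620 nm; IC50 from 4-parameter logistic fit, normalized to unstimulated and stimulated DMSO controls.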

Chain of TNFα (P01375 77-233 limits assumed): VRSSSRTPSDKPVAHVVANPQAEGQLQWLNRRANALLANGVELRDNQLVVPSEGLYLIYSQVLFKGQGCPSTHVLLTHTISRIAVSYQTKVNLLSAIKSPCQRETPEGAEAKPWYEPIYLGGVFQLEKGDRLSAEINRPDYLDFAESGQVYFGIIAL

IC50 [µM] | Structure (SMILES)
< 1 | C[C@@H](Nc1c(Cl)cnc2ccc(-c3cnc(C(C)(C)O)nc3)cc12)c1cc(N)ccc1F [Example 374, (R)-2-(5-(4-((1-(5-amino-2-fluorophenyl)ethyl)amino)-3-chloroquinolin-6-yl)pyrimidin-2-yl)propan-2-ol]
< 1 | C[C@@H](Nc1c(Cl)cnc2ccc(-c3cnc(C(C)(C)O)nc3)cc12)c1cc(C#N)ccc1F [Example 376, (R)-3-(1-((3-chloro-6-(2-(2-hydroxypropan-2-yl)pyrimidin-5-yl)quinolin-4-yl)amino)ethyl)-4-fluorobenzonitrile]

Same assay, conditions: TNFα 0.5 ng/mL, HEK-Blue-CD40L cells, 18 h; read-out: TNF induced HEK-Blue assay IC50 value

IC50 [µM] | Structure (SMILES)
< 1 | Cc1nc2ccc(-c3cnc(C(C)(C)O)nc3)cc2c(N[C@@H](c2cc(N3CCNC3=O)ccc2F)C(F)F)c1Cl [Example 372, (S)-1-(3-(1-((3-chloro-6-(2-(2-hydroxypropan-2-yl)pyrimidin-5-yl)-2-methylquinolin-4-yl)amino)-2,2-difluoroethyl)-4-fluorophenyl) imidazolidin-2-one]
< 1 | Cc1nc2ccc(-c3cnc(C(C)(C)O)nc3)cc2c(N[C@H](C)c2cc(N3CCNC3=O)ccc2F)c1Cl [Example 373, (R)-1-(3-(1-((3-chloro-6-(2-(2-hydroxypropan-2-yl)pyrimidin-5-yl)-2-methylquinolin-4-yl)amino)ethyl)-4-fluorophenyl)imidazolidin-2-one]
< 1 | Cc1nc2ccc(-c3cnc(C(C)(C)O)nc3)cc2c(N[C@H](C)c2cc(C#N)ccc2F)c1Cl [Example 375, (R)-3-(1-((3-chloro-6-(2-(2-hydroxypropan-2-yl)pyrimidin-5-yl)-2-methylquinolin-4-yl)amino)ethyl)-4-fluorobenzonitrile]
< 1 | Cc1nc2ccc(-c3cnc(N4CCN(CC(=O)O)CC4)nc3)cc2c(N[C@H](C)c2cc(C#N)ccc2F)c1Cl [Example 377, (R)-2-(4-(5-(3-chloro-4-((1-(5-cyano-2-fluorophenyl)ethyl)amino)-2-methylquinolin-6-yl)pyrimidin-2-yl)piperazin-1-yl)acetic acid]
10 to 25 | Cc1nc2ccc(-c3cnc(C(C)(C)O)nc3)cc2c(N[C@H](c2cc(C#N)ccc2F)C(F)F)c1Cl [Example 378, (R)-3-(1-((3-chloro-6-(2-(2-hydroxypropan-2-yl)pyrimidin-5-yl)-2-methylquinolin-4-yl)amino)-2,2-difluoroethyl)-4-fluorobenzonitrile]
< 1 | C[C@@H](Nc1c(Cl)cnc2cc(F)c(-c3cnc(C(C)(C)O)nc3)cc12)c1cc(C#N)ccc1F [Example 379, (R)-3-(1-((3-chloro-7-fluoro-6-(2-(2-hydroxypropan-2-yl)pyrimidin-5-yl)quinolin-4-yl)amino)ethyl)-4-fluorobenzonitrile]
< 1 | Cc1nc2ccc(-c3cnc(C(C)(C)O)nc3)cc2c(N[C@@H](c2cc(C#N)ccc2F)C(F)F)c1Cl [Example 380, (S)-3-(1-((3-chloro-6-(2-(2-hydroxypropan-2-yl)pyrimidin-5-yl)-2-methylquinolin-4-yl)amino)-2,2-difluoroethyl)-4-fluorobenzonitrile]
< 1 | CC(C)(O)c1ncc(-c2cc3c(N[C@@H](c4cc(C#N)ccc4F)C(F)F)c(Cl)cnc3cc2F)cn1 [Example 381, (S)-3-(1-((3-chloro-7-fluoro-6-(2-(2-hydroxypropan-2-yl)pyrimidin-5-yl)quinolin-4-yl)amino)-2,2-difluoroethyl)-4-fluorobenzonitrile]
< 1 | Cc1nc2cc(F)c(-c3cnc(C(C)(C)O)nc3)cc2c(N[C@H](C)c2cc(C#N)ccc2F)c1Cl [Example 382, (R)-3-(1-((3-chloro-7-fluoro-6-(2-(2-hydroxypropan-2-yl)pyrimidin-5-yl)-2-methylquinolin-4-yl)amino)ethyl)-4-fluorobenzonitrile]
< 1 | Cc1nc2cc(F)c(-c3cnc(C(C)(C)O)nc3)cc2c(N[C@H](C)c2cccc(C#N)c2)c1Cl [Example 383, (R)-3-(1-((3-chloro-7-fluoro-6-(2-(2-hydroxypropan-2-yl)pyrimidin-5-yl)-2-methylquinolin-4-yl)amino)ethyl)benzonitrile]
1 to 10 | CCOC(=O)c1nc2ccc(-c3cnc(C(C)(C)O)nc3)cc2c(N[C@H](C)c2cc(C#N)ccc2F)c1Cl [Example 384, ethyl (R)-3-chloro-4-((1-(5-cyano-2-fluorophenyl)ethyl)amino)-6-(2-(2-hydroxypropan-2-yl)pyrimidin-5-yl)quinoline-2-carboxylate]
1 to 10 | C[C@@H](Nc1c(Cl)c(C(=O)Nc2cccnc2)nc2ccc(-c3cnc(C(C)(C)O)nc3)cc12)c1cc(C#N)ccc1F [Example 385, (R)-3-chloro-4-((1-(5-cyano-2-fluorophenyl)ethyl)amino)-6-(2-(2-hydroxypropan-2-yl)pyrimidin-5-yl)-N-(pyridin-3-yl)quinoline-2-carboxamide]
< 1 | Cc1nc2ccc(-c3cnc(C(C)(C)O)nc3)cc2c(N[C@H](C)c2cccc(C#N)c2)c1Cl [Example 386, (R)-3-(1-((3-chloro-6-(2-(2-hydroxypropan-2-yl)pyrimidin-5-yl)-2-methylquinolin-4-yl)amino)ethyl)benzonitrile]
< 1 | Cc1nc2ccc(-c3cnc(C(C)(C)O)nc3)cc2c(N[C@H](C)c2cc(C(N)=O)ccc2F)c1Cl [Example 387, (R)-3-(1-((3-chloro-6-(2-(2-hydroxypropan-2-yl)pyrimidin-5-yl)-2-methylquinolin-4-yl)amino)ethyl)-4-fluorobenzamide]
< 1 | C[C@@H](Nc1c(Cl)cnc2ccc(-c3cnc(C(C)(C)O)nc3)cc12)c1cc(C(N)=O)ccc1F [Example 388, (R)-3-(1-((3-chloro-6-(2-(2-hydroxypropan-2-yl)pyrimidin-5-yl)quinolin-4-yl)amino)ethyl)-4-fluorobenzamide]
< 1 | Cc1nc2ccc(-c3cnc(N4CCN(CC(=O)O)CC4)nc3)cc2c(N[C@H](C)c2cc(C(N)=O)ccc2F)c1Cl [Example 389, (R)-2-(4-(5-(4-((1-(5-carbamoyl-2-fluorophenyl)ethyl)amino)-3-chloro-2-methylquinolin-6-yl)pyrimidin-2-yl)piperazin-1-yl)acetic acid]
< 1 | Cc1nc2ccc(-c3cnc(C(C)(C)O)nc3)cc2c(N[C@@H](c2cc(C(N)=O)ccc2F)C(F)F)c1Cl [Example 390, (S)-3-(1-((3-chloro-6-(2-(2-hydroxypropan-2-yl)pyrimidin-5-yl)-2-methylquinolin-4-yl)amino)-2,2-difluoroethyl)-4-fluorobenzamide]
< 1 | CC(C)(O)c1ncc(-c2cc3c(N[C@@H](c4cc(C(N)=O)ccc4F)C(F)F)c(Cl)cnc3cc2F)cn1 [Example 391, (S)-3-(1-((3-chloro-7-fluoro-6-(2-(2-hydroxypropan-2-yl)pyrimidin-5-yl)quinolin-4-yl)amino)-2,2-difluoroethyl)-4-fluorobenzamide]
< 1 | C[C@@H](Nc1c(Cl)cnc2cc(F)c(-c3cnc(C(C)(C)O)nc3)cc12)c1cc(C(N)=O)ccc1F [Example 392, (R)-3-(1-((3-chloro-7-fluoro-6-(2-(2-hydroxypropan-2-yl)pyrimidin-5-yl)quinolin-4-yl)amino)ethyl)-4-fluorobenzamide]
< 1 | Cc1nc2cc(F)c(-c3cnc(C(C)(C)O)nc3)cc2c(N[C@H](C)c2cc(C(N)=O)ccc2F)c1Cl [Example 393, (R)-3-(1-((3-chloro-7-fluoro-6-(2-(2-hydroxypropan-2-yl)pyrimidin-5-yl)-2-methylquinolin-4-yl)amino)ethyl)-4-fluorobenzamide]
< 1 | Cc1nc2cc(F)c(-c3cnc(C(C)(C)O)nc3)cc2c(N[C@H](C)c2cccc(C(N)=O)c2)c1Cl [Example 394, (R)-3-(1-((3-chloro-7-fluoro-6-(2-(2-hydroxypropan-2-yl)pyrimidin-5-yl)-2-methylquinolin-4-yl)amino)ethyl)benzamide]
1 to 10 | C[C@@H](Nc1c(Cl)c(C(=O)Nc2cccnc2)nc2ccc(-c3cnc(C(C)(C)O)nc3)cc12)c1cc(C(N)=O)ccc1F [Example 395, (R)-4-((1-(5-carbamoyl-2-fluorophenyl)ethyl)amino)-3-chloro-6-(2-(2-hydroxypropan-2-yl)pyrimidin-5-yl)-N-(pyridin-3-yl)quinoline-2-carboxamide]
< 1 | Cc1nc2ccc(-c3cnc(C(C)(C)O)nc3)cc2c(N[C@H](C)c2cc(Cc3ccccc3)ccc2F)c1Cl [Example 396, (R)-2-(5-(4-((1-(5-benzyl-2-fluorophenyl)ethyl)amino)-3-chloro-2-methylquinolin-6-yl)pyrimidin-2-yl)propan-2-ol]
< 1 | Cc1nc2ccc(-c3cnc(C(C)(C)O)nc3)cc2c(N[C@H](C)c2cc(O)ccc2F)c1Cl [Example 404, (R)-3-(1-((3-chloro-6-(2-(2-hydroxypropan-2-yl)pyrimidin-5-yl)-2-methylquinolin-4-yl)amino)ethyl)-4-fluorophenol]
< 1 | C[C@@H](Nc1c(Cl)cnc2ccc(-c3cnc(C(C)(C)O)nc3)cc12)c1cc(O)ccc1F [Example 405, (R)-3-(1-((3-chloro-6-(2-(2-hydroxypropan-2-yl)pyrimidin-5-yl)quinolin-4-yl)amino)ethyl)-4-fluorophenol]
< 1 | Cc1nc2ccc(-c3cnc(C(C)(C)O)nc3)cc2c(N[C@H](C)c2cc(Cl)ccc2F)c1Cl [Example 406, (R)-2-(5-(3-chloro-4-((1-(5-chloro-2-fluorophenyl)ethyl)amino)-2-methylquinolin-6-yl)pyrimidin-2-yl)propan-2-ol]
10 to 25 | Cc1nc2ccc(-c3cnc(C(C)(C)O)nc3)cc2c(N[C@H](C)c2cc(C(=O)O)ccc2F)c1Cl [Example 407, (R)-3-(1-((3-chloro-6-(2-(2-hydroxypropan-2-yl)pyrimidin-5-yl)-2-methylquinolin-4-yl)amino)ethyl)-4-fluorobenzoic acid]
